Results as given in ChEMBL document CHEMBL1909046, “DrugMatrix in vitro pharmacology data”.

Tests used:
[1] = molecular target: T1, Angiotensin-converting enzyme (Oryctolagus cuniculus, UniProt P12822); format: tissue-based, Lung;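 note: enzymatic inhibition of angiotensin-converting enzyme measured with FAPGG as the substrate; in other assays of this panel Not Active means under 50% inhibition at 10 µM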
T1 sequence (P12822 whole entry): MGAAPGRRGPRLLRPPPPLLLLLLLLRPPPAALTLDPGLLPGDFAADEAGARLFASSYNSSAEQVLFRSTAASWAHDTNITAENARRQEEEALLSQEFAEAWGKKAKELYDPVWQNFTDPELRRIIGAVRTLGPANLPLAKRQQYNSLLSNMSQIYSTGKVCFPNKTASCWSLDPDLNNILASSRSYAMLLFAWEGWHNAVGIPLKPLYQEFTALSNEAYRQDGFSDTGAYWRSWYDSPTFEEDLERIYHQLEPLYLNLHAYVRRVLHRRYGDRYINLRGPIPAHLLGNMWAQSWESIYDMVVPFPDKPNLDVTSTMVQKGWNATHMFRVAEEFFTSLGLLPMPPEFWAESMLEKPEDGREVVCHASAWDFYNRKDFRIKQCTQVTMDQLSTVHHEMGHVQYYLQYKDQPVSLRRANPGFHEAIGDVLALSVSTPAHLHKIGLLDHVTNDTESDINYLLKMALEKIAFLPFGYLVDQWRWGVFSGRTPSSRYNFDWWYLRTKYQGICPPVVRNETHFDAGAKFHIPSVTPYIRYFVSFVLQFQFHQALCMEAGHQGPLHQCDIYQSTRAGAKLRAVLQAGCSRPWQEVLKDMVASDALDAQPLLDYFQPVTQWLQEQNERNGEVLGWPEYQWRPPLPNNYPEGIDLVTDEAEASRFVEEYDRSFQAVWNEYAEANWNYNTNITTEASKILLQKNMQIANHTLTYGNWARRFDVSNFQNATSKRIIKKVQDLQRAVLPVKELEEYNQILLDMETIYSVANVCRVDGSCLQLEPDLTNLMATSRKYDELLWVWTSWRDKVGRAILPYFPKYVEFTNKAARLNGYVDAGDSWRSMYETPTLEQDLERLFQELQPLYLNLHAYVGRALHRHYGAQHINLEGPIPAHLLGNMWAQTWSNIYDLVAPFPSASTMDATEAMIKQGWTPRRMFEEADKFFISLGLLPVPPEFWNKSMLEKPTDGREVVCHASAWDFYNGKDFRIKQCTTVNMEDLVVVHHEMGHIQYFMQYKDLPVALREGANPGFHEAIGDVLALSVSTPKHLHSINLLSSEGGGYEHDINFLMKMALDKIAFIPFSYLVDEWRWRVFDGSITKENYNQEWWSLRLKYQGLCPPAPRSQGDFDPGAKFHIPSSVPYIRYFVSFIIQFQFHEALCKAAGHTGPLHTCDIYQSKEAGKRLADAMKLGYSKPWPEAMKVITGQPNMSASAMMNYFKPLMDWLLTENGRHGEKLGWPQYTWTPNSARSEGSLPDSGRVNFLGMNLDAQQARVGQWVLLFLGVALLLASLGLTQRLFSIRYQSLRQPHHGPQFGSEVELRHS

[2] = molecular target: Tyrosine-protein kinase Lck (Homo sapiens, UniProt P06239); assay: DRUGMATRIX: Protein Tyrosine Kinase, LCK enzyme inhibition (substrate: Poly(Glu:Tyr)); format: cell-based, Insect cells; conditions: insect cells; Not Active = under 50% inhibition at 10 µM
[3] = DRUGMATRIX: Phosphodiesterase PDE3 enzyme inhibition (substrate: [3H]cAMP + cAMP); format: tissue-based, Homo sapiens; conditions: platelet; Not Active = under 50% inhibition at 10 µM
[4] = molecular target: T2, C-X-C chemokine receptor type 2 (Homo sapiens, UniProt P25025); format: cell membranes, Membrane; conditions: cho-k1; note: in other assays of this panel Not Active means under 50% inhibition at 10 µM
T2 sequence (P25025 whole entry): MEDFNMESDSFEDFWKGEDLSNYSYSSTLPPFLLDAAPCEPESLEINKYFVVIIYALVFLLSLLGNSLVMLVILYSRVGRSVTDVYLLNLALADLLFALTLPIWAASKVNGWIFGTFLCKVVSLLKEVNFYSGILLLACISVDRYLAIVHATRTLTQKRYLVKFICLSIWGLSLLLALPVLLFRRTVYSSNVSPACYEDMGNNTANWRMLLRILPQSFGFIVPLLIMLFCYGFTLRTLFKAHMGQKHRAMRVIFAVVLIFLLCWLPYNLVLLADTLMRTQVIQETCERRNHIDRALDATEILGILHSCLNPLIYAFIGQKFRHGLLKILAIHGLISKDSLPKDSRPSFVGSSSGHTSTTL

[5] = molecular target: Vascular endothelial growth factor receptor 1 (Homo sapiens, UniProt P17948); assay: biochemical; format: cell-based, HUVEC; conditions: huvec; note: in other assays of this panel Not Active means under 50% inhibition at 10 µM
[6] = molecular target: Tyrosine-protein kinase Fyn (Homo sapiens, UniProt P06241); assay: biochemical; format: cell-based, Insect cells;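 note: enzymatic inhibition of Fyn kinase activity measured with Poly(Glu:Tyr) as the phosphorylation substrate; in other assays of this panel Not Active means under 50% inhibition at 10 µM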
Tyrosine-protein kinase Fyn, sequence (P06241 whole entry): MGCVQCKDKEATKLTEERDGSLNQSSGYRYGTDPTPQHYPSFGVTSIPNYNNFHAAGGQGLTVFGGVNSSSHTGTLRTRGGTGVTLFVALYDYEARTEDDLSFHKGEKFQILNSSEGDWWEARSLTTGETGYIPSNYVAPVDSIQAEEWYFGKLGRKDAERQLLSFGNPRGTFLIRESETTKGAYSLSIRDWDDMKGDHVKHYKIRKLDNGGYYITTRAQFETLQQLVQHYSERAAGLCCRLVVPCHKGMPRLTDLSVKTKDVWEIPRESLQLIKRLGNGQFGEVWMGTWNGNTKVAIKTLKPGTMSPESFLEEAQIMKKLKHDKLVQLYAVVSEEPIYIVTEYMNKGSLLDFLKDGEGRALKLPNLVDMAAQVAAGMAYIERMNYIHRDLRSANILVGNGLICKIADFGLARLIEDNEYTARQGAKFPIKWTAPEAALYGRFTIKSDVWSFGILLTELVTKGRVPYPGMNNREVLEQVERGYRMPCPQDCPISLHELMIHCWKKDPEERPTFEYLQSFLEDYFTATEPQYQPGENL

Vascular endothelial growth factor receptor 1, sequence (P17948 whole entry): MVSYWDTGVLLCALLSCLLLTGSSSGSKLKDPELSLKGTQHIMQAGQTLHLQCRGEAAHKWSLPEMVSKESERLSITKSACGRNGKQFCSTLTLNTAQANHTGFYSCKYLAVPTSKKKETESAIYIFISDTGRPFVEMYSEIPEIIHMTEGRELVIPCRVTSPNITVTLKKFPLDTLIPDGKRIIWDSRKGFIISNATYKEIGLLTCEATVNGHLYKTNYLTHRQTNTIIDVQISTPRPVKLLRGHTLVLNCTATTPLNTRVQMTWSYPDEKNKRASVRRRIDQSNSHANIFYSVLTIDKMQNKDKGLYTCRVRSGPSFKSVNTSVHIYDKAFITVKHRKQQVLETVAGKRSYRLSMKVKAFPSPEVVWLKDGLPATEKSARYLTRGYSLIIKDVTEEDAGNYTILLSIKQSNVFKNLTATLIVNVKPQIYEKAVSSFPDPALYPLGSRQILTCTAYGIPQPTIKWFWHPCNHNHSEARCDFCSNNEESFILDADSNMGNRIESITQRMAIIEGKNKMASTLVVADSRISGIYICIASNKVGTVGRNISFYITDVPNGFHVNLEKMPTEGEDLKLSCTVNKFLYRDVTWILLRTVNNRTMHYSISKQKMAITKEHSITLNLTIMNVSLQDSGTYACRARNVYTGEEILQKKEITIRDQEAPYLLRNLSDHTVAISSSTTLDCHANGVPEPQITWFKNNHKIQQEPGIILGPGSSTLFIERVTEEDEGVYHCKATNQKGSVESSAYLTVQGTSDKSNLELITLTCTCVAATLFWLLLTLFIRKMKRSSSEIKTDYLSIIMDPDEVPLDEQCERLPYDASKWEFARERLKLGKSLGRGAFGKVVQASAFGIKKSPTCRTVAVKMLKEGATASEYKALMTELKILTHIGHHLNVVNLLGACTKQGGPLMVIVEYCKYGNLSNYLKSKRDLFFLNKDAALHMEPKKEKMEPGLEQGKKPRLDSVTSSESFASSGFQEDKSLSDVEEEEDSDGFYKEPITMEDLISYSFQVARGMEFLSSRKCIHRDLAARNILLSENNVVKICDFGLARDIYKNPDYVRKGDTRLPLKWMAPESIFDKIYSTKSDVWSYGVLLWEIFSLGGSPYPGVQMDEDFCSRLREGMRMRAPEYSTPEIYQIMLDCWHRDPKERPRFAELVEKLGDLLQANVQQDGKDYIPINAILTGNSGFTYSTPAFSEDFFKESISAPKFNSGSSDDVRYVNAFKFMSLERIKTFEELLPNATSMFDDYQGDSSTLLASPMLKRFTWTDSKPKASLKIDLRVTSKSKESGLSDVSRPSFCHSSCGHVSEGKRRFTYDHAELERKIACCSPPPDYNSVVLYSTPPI
Tyrosine-protein kinase Lck, sequence (P06239 whole entry): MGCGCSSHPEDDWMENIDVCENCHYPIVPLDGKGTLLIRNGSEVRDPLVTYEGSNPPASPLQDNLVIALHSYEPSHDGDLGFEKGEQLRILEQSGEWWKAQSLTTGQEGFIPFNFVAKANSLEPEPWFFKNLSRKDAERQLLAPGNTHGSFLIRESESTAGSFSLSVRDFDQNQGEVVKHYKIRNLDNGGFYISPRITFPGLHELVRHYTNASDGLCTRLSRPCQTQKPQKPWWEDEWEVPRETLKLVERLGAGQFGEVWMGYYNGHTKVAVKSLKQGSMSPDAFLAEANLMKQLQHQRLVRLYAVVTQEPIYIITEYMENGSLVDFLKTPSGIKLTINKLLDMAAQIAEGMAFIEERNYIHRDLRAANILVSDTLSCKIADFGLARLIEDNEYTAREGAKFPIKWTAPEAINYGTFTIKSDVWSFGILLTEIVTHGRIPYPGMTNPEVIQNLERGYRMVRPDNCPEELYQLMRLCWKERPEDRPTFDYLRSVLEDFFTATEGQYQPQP

Structure (SMILES)	IC50 [1]	IC50 [2]	IC50 [3]	Ki [3]	IC50 [4]	IC50 [5]	IC50 ([6]; insect cells)	IC50 ([6]; read-out: IC50)
CC(=O)[C@@]1(O)CC[C@H]2[C@@H]3CCC4=CC(=O)CC[C@]4(C)[C@H]3CC[C@@]21C [HYDROXYPROGESTERONE]	Not Active	Not Active	Not Active	Not Active	Not Active	Not Active	Not Active	
COC1=C(OC)C(=O)C(CCCCCCCCCCO)=C(C)C1=O [IDEBENONE]	Not Active	Not Active	Not Active	Not Active	Not Active	Not Active	Not Active	
CC(C)NNC(=O)c1ccncc1 [IPRONIAZID]	Not Active	Not Active	Not Active	Not Active	Not Active	Not Active	Not Active	
Cc1c(OCC(F)(F)F)ccnc1C[S+]([O-])c1nc2ccccc2[nH]1 (configuration not stated) [LANSOPRAZOLE]	Not Active	Not Active	Not Active	Not Active	Not Active	Not Active	Not Active	
COc1ccc2[nH]cc(CCNC(C)=O)c2c1 [MELATONIN]	Not Active	Not Active	Not Active	Not Active	Not Active	Not Active	Not Active	
NC(=O)C[S+]([O-])C(c1ccccc1)c1ccccc1 (configuration not stated) [MODAFINIL]	Not Active	Not Active	Not Active	Not Active	Not Active	Not Active	Not Active	
CCN(CC)CCOCCC1=CCC2CC1C2(C)C (configuration not stated) [MYRTECAINE]	Not Active	Not Active	Not Active	Not Active	Not Active	Not Active	Not Active	
O=C(O)c1cccnc1Nc1cccc(C(F)(F)F)c1 [NIFLUMIC ACID]	Not Active	Not Active	Not Active	Not Active	Not Active	Not Active	Not Active	
O=C(N/N=C/c1ccc([N+](=O)[O-])o1)c1cc([N+](=O)[O-])cc([N+](=O)[O-])c1O [NIFURSOL]	Not Active	Not Active	Not Active	Not Active	Not Active	Not Active	Not Active	
COC(=O)Nc1nc2ccc(C(=O)c3cccs3)cc2[nH]1 [NOCODAZOLE]	Not Active	Not Active	Not Active	Not Active	Not Active	Not Active	Not Active	
C#CC1(O)CC[C@H]2[C@@H]3CCC4=CC(=O)CC[C@@H]4[C@H]3CC[C@@]21CC (some centres not stated) [NORGESTREL]	Not Active	Not Active	Not Active	Not Active	Not Active	Not Active	Not Active	
COC(=O)Nc1nc2ccc([S+]([O-])c3ccccc3)cc2[nH]1 (configuration not stated) [OXFENDAZOLE]	Not Active	Not Active	Not Active	Not Active	Not Active	Not Active	Not Active	
CC(=O)O[C@H]1C(=O)[C@@]2(C)[C@H]([C@H](OC(=O)c3ccccc3)[C@]3(O)C[C@H](OC(=O)[C@H](O)[C@@H](NC(=O)c4ccccc4)c4ccccc4)C(C)=C1C3(C)C)[C@]1(OC(C)=O)CO[C@@H]1C[C@@H]2O [PACLITAXEL]	Not Active	Not Active	Not Active	Not Active	Not Active	Not Active		23.9 µM
C[n+]1ccc(-c2cc[n+](C)cc2)cc1.[Cl-].[Cl-] [PARAQUAT DICHLORIDE]	Not Active	Not Active	Not Active	Not Active	Not Active	Not Active	Not Active	
CC(C)NCC(O)COc1cccc2[nH]ccc12 (configuration not stated) [PINDOLOL]	Not Active	Not Active	Not Active	Not Active	Not Active	Not Active	Not Active	
CCn1cc(C(=O)O)c(=O)c2cnc(N3CCCC3)nc21 [PIROMIDIC ACID]	Not Active	Not Active	Not Active	Not Active	Not Active	Not Active	Not Active	
C[n+]1ccccc1/C=N/O.[Cl-] [PRALIDOXIME CHLORIDE]	Not Active	Not Active	Not Active	Not Active	Not Active	Not Active	Not Active	
COc1cc2nc(N3CCN(C(=O)c4ccco4)CC3)nc(N)c2cc1OC [PRAZOSIN]	Not Active	Not Active	Not Active	Not Active	Not Active	Not Active	Not Active	
C[C@]12C=CC(=O)C=C1CC[C@@H]1[C@@H]2[C@@H](O)C[C@@]2(C)[C@H]1CC[C@]2(O)C(=O)CO [PREDNISOLONE]	Not Active	Not Active	Not Active	Not Active	Not Active	Not Active	Not Active	
CC(=O)[C@H]1[C@H](C#N)C[C@H]2[C@@H]3CC=C4C[C@@H](O)CC[C@]4(C)[C@H]3CC[C@@]21C [PREGNENOLONE CARBONITRILE]	Not Active	Not Active	Not Active	Not Active	Not Active	Not Active	Not Active	
CCCN(CCC)S(=O)(=O)c1ccc(C(=O)O)cc1 [PROBENECID]	Not Active	Not Active	Not Active	Not Active	Not Active	Not Active	Not Active	
CCCNCC(O)COc1ccccc1C(=O)CCc1ccccc1 (configuration not stated) [PROPAFENONE]	Not Active	Not Active	Not Active	Not Active	Not Active	Not Active	Not Active	
CCCOc1ccc(C(=O)OCCN(CC)CC)cc1N [PROPARACAINE]	Not Active	Not Active	Not Active	Not Active	Not Active	Not Active	Not Active	
CC(C)c1cccc(C(C)C)c1O [PROPOFOL]	Not Active	Not Active	Not Active	Not Active	Not Active	Not Active	Not Active	
C[C@@H]1O[C@@H](O[C@@H]2C=C3CC[C@@H]4[C@H](CC[C@]5(C)[C@@H](c6ccc(=O)oc6)CC[C@]45O)[C@@]3(C)CC2)[C@H](O)[C@H](O)[C@H]1O [PROSCILLARIDIN]	Not Active	Not Active	Not Active	Not Active	Not Active	Not Active	Not Active	
Oc1cccc(O)c1O [PYROGALLOL]	Not Active	Not Active	Not Active	Not Active	Not Active	Not Active		0.997 µM
